# Like-named read-outs stand apart in the source and are kept apart here.
# B1: Methylobacterium Thebainfresser morphinan N-demethylase (MND), SEQ ID NO: 2, His-tag purified from E. coli PLUSE cells (Methylobacterium thebainfresser) (protein)
# chain: MTEKTPKLGSEAANKLGLEADISRRDMVGGVLIGAGAALLASVAPGAINRALAEGPSRLPPVRGSGTGWRGIEIADDWQGPGGIGDYSKSNGNTGKVIRDAHAGIRNHEFEKRLATASDVNEKYDVIIVGAGISGLHSAYDLLRQRPNIKILMLDNHAIFGGEAKQNKMEVDGQALYGGQGPTLYSFVGDDLPSWKGNPALASIMELKTYPKEFGLPTETTWSDKKTDVKVPVDLWFSMASPSQTDIAYRWEGSGLVKNPLLNSFRDAPVSQKSKDAIALMLAVDNGAKRPVEPVGDVSTWVDNMTYAEFLKKVYGADDEAVQLVDQIDVVGTAGLGGDVFNASLAALGLNQYGGIELWNGGLQGLSLPTGNGGVGRSILRKFMPGAIKGGTSLTDTLFGDVNWDVLDHANNNVRIRLNSTVVGVQNNETPTGTKDATVFFLHDNRLYKAKGKAVIMGTPQQVNRNVCLNLPNHLSEAMGDFHHAPILVVNVALRNWKSMEKAGVSGLRWFGEYPGIGQIVRSMVIDGKEIMPCDPSKPAVMTFYIPMNQATRGMPRGEQAMTARHMLFNLTFADIELLIRDQLTRAFGSYGFDAKRDIAAIVANRWGHALVCAGPGFYTGLNGKPPVSKVITAGWDRVAFGHSDLSGRQAWTVAVNYARTAVANVFPKI
# Experiments:
# MND enzyme [1] = format: biochemical, Methylobacterium Thebainfresser; conditions: for substrate acceptance / detectable N-demethylase activity (in words): overnight assays, purified MND enzyme from PLUSE cells
# Procedure: Samples were injected by the UFLCXR (Shimadzu) autosampler/pump system using a 0.5 ml/min flow rate prior to separation using a Gemini C-18 column (150×2.00 mm, 5μ, 110 Å; Phenomenex) and introduction into the QTRAP 6500. The program consisted of a binary gradient with solvent A (5% acetonitrile/5% MeOH/10 mM ammonium acetate/15 mM NH4OH) and solvent B (90% acetonitrile/10 mM ammonium acetate/15 mM NH4OH) and the following gradient: 0-2.0 min 0% B, 2.0-9.0 min 0-44% B, 9.0-11.0 min 44-100% solvent B, 11-13 min 100% B and 100-0% solvent B from 13-14 min and held at 0% B for an additional 8 min. EPI scans for each substrate and predicted product mass were included for each enzyme assay and source parameters were identical to those used for the QTRAP 4000 above except CE and DP which were based upon the optimum for each individual compound. Masses used can be found in table 3. Data were analyzed using Analyst 1.6.2.
# Substrates were prepared in a 1 mM stock concentration then diluted to 100 μM working concentration for use in enzyme assays with the MND enzyme. […] No more than 15% ethanol was added to the 1 mM concentrations. […] All enzyme assays contained 30 mM potassium phosphate buffer pH 8.0, 7.5 μM substrate and 100 μl of purified MND enzyme (˜36 μg) in a total volume of 200 μl. Duplicate assays of each substrate using purified pET28a empty vector were performed as negative control and an assay containing thebaine and MND enzyme was used as a positive control. Assays were incubated at 30° C. overnight prior to ethyl acetate extraction. All samples were diluted 10 fold with 50% MeOH and analyzed on the QTRAP 6500 using method 2 and a 20 μl injection volume. The percentage of substrate demethylation was calculated based upon reduction of substrate in the enzyme assay as compared to the negative control.
# Purified MND enzyme from PLUSE cells was used to test various substrates containing a methylated nitrogen (FIG. 16) in overnight assays.
# [2] = Proteinase K treatment and cofactor addition, conversion of thebaine to northebaine; format: biochemical; conditions: 1500 pmol cofactor added to no enzyme and pET28a empty vector controls
# Procedure: The first of two assays performed included adding 1500 pmol FAD to the 200 MND enzyme assay including 100 μl purified MND (˜36 μg) and 1500 pmol thebaine in 30 mM potassium phosphate buffer pH 7.0 with and without a prior 1 hour digest (of MND enzyme) with Proteinase K. Controls included a no enzyme control, FAD addition to a no enzyme control, a pET28a empty vector control, a pET28a empty vector control with FAD, and a pET28a empty vector control digested with Proteinase K followed by FAD addition. Assays were allowed to incubate for 20 minutes and then processed as in section 23.0. A second set of assays was performed, in duplicate, to validate the results found in the previous assay in addition to testing more cofactors. This assay included the following conditions; MND enzyme, MND enzyme pre-digested with Proteinase K for 1 hour, MND enzyme digested with Proteinase K in the presence of 1% SDS and 10 mM EDTA, MND enzyme with 1% SDS and 10 mM EDTA (no Proteinase K pre-digestion), pET28a empty vector, pET28a empty vector pre-digested with Proteinase K for 1 hour, pET28a empty vector digested with Proteinase K in the presence of 1% SDS and 10 mM EDTA, MND enzyme with the addition of 1500 pmol FMN, pET28a empty vector with the addition of 1500 pmol FMN, MND enzyme with the addition of 1500 pmol PLP and pET28a empty vector with the addition of 1500 pmol PLP. Assays were allowed to proceed for 20 minutes prior to processing and quantitation as described in section 23.0.
# MND enzyme [3] = test: Purified MND enzyme assay using thebaine as substrate; format: biochemical, Methylobacterium Thebainfresser
# Procedure: […]. No enzyme, boiled enzyme, and purified empty vector controls were included. MND enzyme was heated for 10 min at 95° C. for the boiled enzyme control. Assays were extracted twice with 400 μl ethyl acetate and dried to completion with N2. Dried samples were resuspended in 150 μl of 50% MeOH, filtered (low protein binding 0.2 μm, 4 mm, PTFE; Millipore), and diluted 100 fold prior to LC-MS/MS analysis on the QTRAP 6500 using method 1 and a 5 μl injection volume.
# Enzyme assays using the purified MND enzyme protein produced in PLUSE cells were done, in duplicate, as indicated above with the following exceptions: 10 μl of 100 μM codeine standard was added to each assay, prior to extraction, as an internal standard. Dried extracts were resuspended in 200 μl of 50% MeOH, filtered (0.2 μm, 4 mm, PTFE, Millipore). Samples were diluted 50 fold prior to a 5 μl injection onto the QTRAP 6500 using method 1.
# [4] = substrate: COC1=CC=C2[C@H]3Cc4ccc(OC)c5c4[C@@]2(CCN3C)[C@H]1O5; test: purified protein, by the assay type; conditions: pH 7.0; 30.0 °C
# [5] = overnight enzyme assay at 30° C., 7.5 μM substrate, ~36 μg purified MND enzyme, pH 8.0, reduction of substrate vs empty vector control, percentages approximate
molecule,measurement,setting,value
CN(C)Cc1c[nH]c2ccccc12 [Gramine],substrate acceptance / detectable N-demethylase activity (in words),MND enzyme [1],accepted
same,Percent demethylated,MND enzyme [1]; [5],51%
COc1ccc2c3c1O[C@H]1C(=O)C=C[C@H]4[C@@H](C2)N(C)CC[C@]314 [Codeinone],Percent demethylated,MND enzyme [1]; [5],100%
CN1CC[C@]23c4c5ccc(O)c4O[C@H]2C(=O)C=C[C@H]3[C@H]1C5 [Morphinone],Percent demethylated,MND enzyme [1]; [5],100%
COc1ccc2c3c1O[C@H]1[C@@H](O)C=C[C@H]4[C@@H](C2)N(C)CC[C@@]341 [Codeine],Percent demethylated,MND enzyme [1]; [5],100%
COc1ccc(CC2c3cc(OC)c(OC)cc3CCN2C)cc1OC (centres unmarked) [Laudanosine],Percent demethylated,MND enzyme [1]; [5],31%
CN1CC[C@]23c4c5ccc(O)c4O[C@H]2C(=O)CC[C@@]3(O)[C@H]1C5 [Oxymorphone],Percent demethylated,MND enzyme [1]; [5],73%
COC1=CC=C2[C@H]3Cc4ccc(O)c5c4[C@@]2(CCN3C)[C@H]1O5 [Oripavine],Percent demethylated,MND enzyme [1]; [5],100%
CN1[C@@H]2C[C@@H](OC(=O)[C@H](CO)c3ccccc3)C[C@H]1[C@@H]1O[C@@H]12 [Scopolamine],substrate acceptance / detectable N-demethylase activity (in words),MND enzyme [1],accepted
same,Percent demethylated,MND enzyme [1]; [5],65%
COc1cc2c3c(c1O)-c1c(cccc1OC)C[C@@H]3N(C)CC2 [Isothebaine],substrate acceptance / detectable N-demethylase activity (in words),MND enzyme [1],accepted
same,Percent demethylated,MND enzyme [1]; [5],35%
COc1ccc2c(c1OC)C(=O)O[C@@H]2[C@H]1c2c(cc3c(c2OC)OCO3)CCN1C [Noscapine (Narcotine)],Percent demethylated,MND enzyme [1]; [5],20%
COC1=C[C@]23CCN(C)[C@H](Cc4ccc(OC)c(O)c42)C3=C[C@@H]1O [Salutaridinol],Percent demethylated,MND enzyme [1]; [5],100%
"Cc1cc2nc3c(=O)[nH]c(=O)nc-3n(C[C@H](O)[C@H](O)[C@H](O)COP(=O)(O)OP(=O)(O)OC[C@H]3O[C@@H](n4cnc5c(N)ncnc54)[C@H](O)[C@@H]3O)c2cc1C [FAD, flavin adenine dinucleotide]",background demethylation of thebaine to northebaine on cofactor addition,[2],slight increase
COc1ccc(C[C@H]2c3cc(OC)c(OC)cc3CCN2C)cc1O [Laudanine (Laudanidine)],Percent demethylated,MND enzyme [1]; [5],14%
COc1cc(C[C@@H]2c3cc(O)c(OC)cc3CCN2C)ccc1O [Orientaline],Percent demethylated,MND enzyme [1]; [5],100%
CC(=O)Oc1ccc2c3c1O[C@H]1[C@@H](OC(C)=O)C=C[C@H]4[C@@H](C2)N(C)CC[C@@]341 [Heroin],Percent demethylated,MND enzyme [1]; [5],70%
COc1ccc2c3c1O[C@H]1C[C@@H](O)C=C[C@@]31CCN(C)C2 [Galanthamine],substrate acceptance / detectable N-demethylase activity (in words),MND enzyme [1],accepted
same,Percent demethylated,MND enzyme [1]; [5],27%
COc1ccc(C[C@@H]2c3cc(O)c(OC)cc3CCN2C)cc1O [(R)-Reticuline],Percent demethylated,MND enzyme [1]; [5],25%
CN1[C@@H]2CC[C@H]1C[C@@H](OC(=O)[C@H](CO)c1ccccc1)C2 [Hyoscyamine],substrate acceptance / detectable N-demethylase activity (in words),MND enzyme [1],accepted
same,Percent demethylated,MND enzyme [1]; [5],18%
"Cc1cc2nc3c(=O)[nH]c(=O)nc-3n(C[C@H](O)[C@H](O)[C@H](O)COP(=O)(O)O)c2cc1C [FMN, flavin mononucleotide]",background demethylation of thebaine to northebaine on cofactor addition,[2],increase in background activity
COc1ccc(C[C@H]2c3cc(O)c(OC)cc3CCN2C)cc1O [(S)-Reticuline],Percent demethylated,MND enzyme [1]; [5],55%
COC1=C[C@]23CCN(C)[C@H](Cc4ccc(OC)c(O)c42)C3=CC1=O [Salutaridine],Percent demethylated,MND enzyme [1]; [5],100%
COc1ccc(CC2c3cc(OC)c(O)cc3CCN2C)cc1O (centres unmarked) [Protosinomenine],Percent demethylated,MND enzyme [1]; [5],60%
Isoorientaline,Percent demethylated,MND enzyme [1]; [5],86%
Cc1ncc(COP(=O)(O)O)c(C=O)c1O [PLP],background demethylation of thebaine to northebaine on cofactor addition,[2],did not
CN1[C@@H](CC(=O)c2ccccc2)CCC[C@H]1C[C@H](O)c1ccccc1 [(−)-Lobeline],substrate acceptance / detectable N-demethylase activity (in words),MND enzyme [1],accepted
same,Percent demethylated,MND enzyme [1]; [5],20%
CN1[C@@H]2CC[C@H]1CC(=O)C2 [Tropinone],substrate acceptance / detectable N-demethylase activity (in words),MND enzyme [1],accepted
same,Percent demethylated,MND enzyme [1]; [5],40%
CN1CC[C@]23c4c5ccc(O)c4O[C@H]2[C@@H](O)C=C[C@H]3[C@H]1C5 [Morphine],Percent demethylated,MND enzyme [1]; pH 8,100%
COc1cc2c(cc1O)[C@H](CCc1cc(O)c(OC)c(OC)c1)N(C)CC2 [Autumnaline],Percent demethylated,MND enzyme [1]; [5],11%
COC1=CC=C2[C@H]3Cc4ccc(OC)c5c4[C@@]2(CCN3C)[C@H]1O5 [Thebaine],conversion to N-demethylthebaine (northebaine),MND enzyme [3]; aqueous solution at 30° C.,100%
same,substrate depletion (in words),"MND enzyme [3]; overnight assay, purified MND enzyme, 1500 pmol thebaine, pH 8.0, 30° C.",depleted completely
same,Percent demethylated,MND enzyme [1]; [5],100%
B1,Km,[4],0.97 µM
same,Vmax,[4],0.32 pmol/s
same,kcat,[4],0.00065 s⁻¹

# Reference: patent US11542481B2, “Morphinan N-demethylase isolated from the methylobacterium thebainfresser and methods of use thereof” (priority 2017, dated 2023)
